Like-named read-outs stand apart in the source and are kept apart here.

One data set deals with β-tubulin. Description: Tubulin polymerization inhibition (beta-tubulin ELISA in HepG2 cells). Type of data set: cell-based, human. The procedure:
The selected candidates were tested at a concentration equal to their IC50 concentration dose value. […] See Section 3.3.2 in Supplementary Material. […] page 18: 3.3. Biological studies 3.3.1. Cytotoxic activity evaluation To measure the cytotoxic activity of the synthesized derivatives 2a-11 in hepatocel- lular carcinoma (HepG2) cell line (ATCC Cat No. HB-8065) as well as normal human liver cell line HL-7702 (ATCC Cat. No. 77402), cell viability assay was assessed using MTT assay method. Cells at density of 1 x 104 were seeded in a 96-well plate at 37 °C for 24 h under 5% CO2. After incubation, the cells were treated with different concentrations of the test compounds 2a-11 and incubated for 24 h, then 20 μl of MTT solution at 5 mg/mL was […] Dimethyl sulphoxide (DMSO) in volume of 100 μl was added to each well to dissolve the purple formazan that had formed. The color […] of the formazan product, which represents the growth condition of the cells, is quan- […] by using an ELISA plate reader (EXL 800, USA) at 570 nm absorbance. The experi- mental conditions were carried out with at least three replicates, and the experiments were repeated at least three times. 3.3.2. Tubulin inhibitions Assay […] according to the manufacturer's instructions using # abcam Human Beta-tubulin […] ELISA Kit ab245722. 3.3.3. Cell cycle analysis of compound 9 Cell cycle analysis in HepG2 cells was investigated using fluorescent Annexin V- FITC/ PI detection kit (BioVision EZCellTM Cell Cycle Analysis Kit Catalog #K920) by flow cytometry assay. […] twice in PBS. After that, the cells were incubated at 37 °C and 5% CO2. […] Apoptosis assay for compound 9 Apoptosis in HepG2 cells was investigated using fluorescent Annexin V-FITC/ PI de- tection kit (BioVision Annexin V-FITC Apoptosis Detection Kit, Catalog #: K101) by flow cy- tometry assay. […] The samples were immediately analyzed using FACS Calibur flow cytometer (Becton and Dickinson, Heidelberg, Germany). 3.3.5. Measurement of mitochondrial membrane potential (MMP) for compound 9 MMP was measured by FACS analysis using abcam ab113852TMRE Mitochondrial Membrane Potential Assay Kit with DiOC2(3) staining using MitoProbeTM DiOC2(3) Assay Kit for Flow Cytometry (M34150). After treatment with compound 9 at its IC50 concentra- tion, cells were stained with DiOC2(3) dye for 30 min in the incubator, then harvested and washed with PBS. […] The samples were immediately analyzed using cell Quest software. […] Effect on p53, Bax and Bcl-2 p53, Bax and Bcl2 enzyme activities in HepG2 cells were detected in the presence of com- pound 9 at its IC50 concentration (μM). The levels of the tumor suppressor gene p53, apoptotic markers Bax as well as the anti-apoptotic marker Bcl-2 were assessed using p53 ELISA kit, Human Bax ELISA kit and Bcl-2 Elisa kit. […]
(In general: An ELISA detects its analyte on a solid surface through an enzyme-linked reagent.)

In data set [1] the test system is normal liver cell line HL-7702. Description: MTT cytotoxicity assay, normal liver cells. The format is cell-based. Particulars: Homo sapiens, L02, 24 h treatment, mean ± SE. The procedure: (§1) All the newly synthesized analogs were evaluated for their in vitro cytotoxicity against the hepatocellular carcinoma HepG2 cell line. Podo was utilized as a reference control in the current study. […] The N-phenyl triazinone derivative 9 was further investigated for its cytotoxic effects against normal liver cell line HL-7702.
(§2) MTT colorimetric assay was carried out to investigate the impact of the newly synthesized compounds 2–11 on hepatocellular carcinoma (HepG2) and normal liver cell line (HL-7702) cell lines. See Section 3.3.1 in Supplementary Material.
(§3) 3.3.1. Cytotoxic activity evaluation
To measure the cytotoxic activity of the synthesized derivatives 2a-11 in hepatocel-lular carcinoma (HepG2) cell line (ATCC Cat No. HB-8065) as well as normal human liver cell line HL-7702 (ATCC Cat. No. 77402), cell viability assay was assessed using MTT assay method. Cells at density of 1 x 104 were seeded in a 96-well plate at 37 °C for 24 h under 5% CO2. […] The color inten-sity of the formazan product, which represents the growth condition of the cells, is quan-tified by using an ELISA plate reader (EXL 800, USA) at 570 nm absorbance. […]
(§4) Compounds 9, 10 and 11 were evaluated for their tubulin inhibitory activity levels according to the manufacturer’s instructions using # abcam Human Beta-tubulin simplestep […]
3.3.5. […] The samples were immediately analyzed using cell […]

For data set [2], the system named is hepatocellular carcinoma HepG2 cell line. The data set is described as follows: MTT cytotoxicity assay, HepG2. Type of data set: cell-based, human. To be noted: Homo sapiens, mean ± SE. How it is done: as §1, §2, §3
To measure the cytotoxic activity of the synthesized derivatives 2a-11 in hepatocel-lular carcinoma (HepG2) cell line (ATCC Cat No. HB-8065) as well as normal human liver cell line HL-7702 (ATCC Cat. No. 77402), cell viability assay was assessed using MTT assay method. Cells at density of 1 x 104 were seeded in a 96-well plate at 37 °C for 24 h under 5% CO2. After incubation, the cells were treated with different concentrations of the test compounds 2a-11 and incubated for 24 h, then 20 μl of MTT solution at 5 mg/mL was applied and incubated for 4 h at 37 °C. Dimethyl sulphoxide (DMSO) in volume of 100 µl was added to each well to dissolve the purple formazan that had formed. The color inten-sity of the formazan product, which represents the growth condition of the cells, is quan-tified by using an ELISA plate reader (EXL 800, USA) at 570 nm absorbance. The experi-mental conditions were carried out with at least three replicates, and the experiments were repeated at least three times.
3.3.2. Tubulin inhibitions Assay
as §4
3.3.3. Cell cycle analysis of compound 9
Cell cycle analysis in HepG2 cells was investigated using fluorescent Annexin V-FITC/ PI detection kit (BioVision EZCellTM Cell Cycle Analysis Kit Catalog #K920) by flow cytometry assay. HepG2 cells at a density of 2 × 10^5 per well were harvested and washed twice in PBS. After that, the cells were incubated at 37 °C and 5% CO2. […] Afterward, medium was stained with DNA flu-orochrome PI for 15 min at 37 °C. The samples were immediately analyzed using Facs Calibur flow cytometer (Becton and Dickinson, Heidelberg, Germany).
3.3.4. Apoptosis assay for compound 9
Apoptosis in HepG2 cells was investigated using fluorescent Annexin V-FITC/ PI de-tection kit (BioVision Annexin V-FITC Apoptosis Detection Kit, Catalog #: K101) by flow cy-tometry assay. HepG2 cells at a density of 2 × 10^5 per well were treated with compound 9 at its IC50 (μM) for 48 h, then the cells were harvested and stained with Annexin V-FITC/ PI dye for 15 min in the dark at 37 °C. The samples were immediately analyzed using FACS Calibur flow cytometer (Becton and Dickinson, Heidelberg, Germany).
3.3.5. Measurement of mitochondrial membrane potential (MMP) for compound 9 MMP was measured by FACS analysis using abcam ab113852TMRE Mitochondrial Membrane Potential Assay Kit with DiOC2(3) staining using MitoProbe™ DiOC2(3) Assay Kit for Flow Cytometry (M34150). After treatment with compound 9 at its IC50 concentra-tion, cells were stained with DiOC2(3) dye for 30 min in the incubator, then harvested and washed with PBS. DiOC2(3)-stained cells were represented with Annexin binding buffer and incubated at 37 °C for 15 min. The samples were immediately analyzed using cell […]
3.3.6. Effect on p53, Bax and Bcl-2 p53, Bax and Bcl2 enzyme activities in HepG2 cells were detected in the presence of com-pound 9 at its IC50 concentration (μM). The levels of the tumor suppressor gene p53, apoptotic markers Bax as well as the anti-apoptotic marker Bcl-2 were assessed using p53 ELISA kit, Human Bax ELISA kit and Bcl-2 Elisa kit. […]

The next data set deals with eight cancer cell lines. Further details: method as in PMID 23547728. To be noted: read-out: average IC50 over eight cancer cell lines; cited from earlier work.
The subject of the next data set is HCT-116 cell line. Further details: method as in doi:10.1016/j.arabjc.2021.103644. Particulars: read-out: IC50, antiproliferative activity; cited from earlier work.
The next data set relates to PC-3 cell line. Further details: method as in doi:10.1016/j.arabjc.2021.103644. To be noted: read-out: IC50, antiproliferative activity; cited from earlier work.
In a further data set the test system is A-594 cell line. Further details: method as in doi:10.1016/j.arabjc.2021.103644. To be noted: read-out: IC50, antiproliferative activity; cited from earlier work.
For a further data set, the system named is MGC-803 cell line. Further details: method as in doi:10.1016/j.arabjc.2021.103644. Particulars: read-out: IC50, antiproliferative activity; cited from earlier work.
The subject of another data set is EC-109 cell line. Further details: method as in doi:10.1016/j.arabjc.2021.103644. Particulars: read-out: IC50, antiproliferative activity; cited from earlier work.

The IC50 is the concentration that gives 50% inhibition. With `COc1cc([C@@H]2c3cc4c(cc3[C@H](O)[C@H]3COC(=O)[C@H]23)OCO4)cc(OC)c1OC` [podo, podophyllotoxin, reference compound], the “β-tubulin polymerization inhibition percentage” value in the data set on β-tubulin is 91.32%. In addition, the IC50 in [1] came out at 18.6 ± 0.58 µM; in [2] (HepG2, 24 h treatment), 2.08 ± 0.04 µM.
`COc1cc(C(=O)c2nc(-c3ccccc3)c[nH]2)cc(OC)c1OC` [RABI-112]: the 50% inhibitory concentration (IC50) in the data set on eight cancer cell lines is 14 nM.
As for `COc1cc(Nc2nc(Cc3ccc(C(=O)/C=C/c4ccccn4)cc3)nnc2Cl)cc(OC)c1OC` [V], the IC50 with HCT-116 cell line was 430 nM; with PC-3 cell line, 610 nM; in the data set with A-594 cell line it was 520 nM; with MGC-803 cell line, 410 nM; with EC-109 cell line, 780 nM.
In general, melting point refers to the temperature, or range, at which the solid turns liquid. On to `COc1ccc(C2=N/C(=C\c3cc(OC)c(OC)c(OC)c3)C(=O)NN2C(=O)c2ccncc2)cc1OC` [Compound 10, (Z)-3-(3,4-Dimethoxyphenyl)-2-Isonicotinoyl-5-(3,4,5-Trimethoxybenzylidene)-1,2-Dihydro-1,2,4-Triazin-6(5H)-one], for which the melting point is 248 to 250 °C. In the data set with β-tubulin (HepG2 cells, each compound at its IC50 concentration (9 1.38, 10 2.52, 11 3.21, podo 2.08 μM), ELISA), the “β-tubulin polymerization inhibition percentage” value is 80.51%. This compound registered an IC50 in data set [2] (HepG2, 24 h, 24 h treatment) of 2.52 ± 0.24 µM.

Source of the values: paper PMC9322052, “Synthesis and Biological Activity Screening of Newly Synthesized Trimethoxyphenyl-Based Analogues as Potential Anticancer Agents” (Molecules, 2022).
